Data taken from the NIST ThermoML archive (doi:10.1021/je500669y).
Numbers after ± are expanded uncertainties.

Assay: xn = mol fraction of the nth substance listed
Conditions: Gas, isochoric method

F/C=C/C(F)(F)F [trans-1,3,3,3-tetrafluoropropene] + N#N
Conditions	specific volume [m3/kg]
263.05 K, 383.1 kPa, x2 = 0.75	0.114 ± 0.01
263.16 K, 622.6 kPa, x2 = 0.746	0.069 ± 0.01
273.12 K, 398.4 kPa, x2 = 0.75	0.114 ± 0.01
273.13 K, 648.5 kPa, x2 = 0.746	0.069 ± 0.01
273.19 K, 464.3 kPa, x2 = 0.5	0.066 ± 0.01
283.07 K, 291.8 kPa, x2 = 0.495	0.11 ± 0.01
283.1 K, 413.5 kPa, x2 = 0.75	0.114 ± 0.01
283.1 K, 673.7 kPa, x2 = 0.746	0.069 ± 0.01
283.12 K, 485.7 kPa, x2 = 0.5	0.066 ± 0.01
293.08 K, 302.8 kPa, x2 = 0.495	0.11 ± 0.01
293.09 K, 699 kPa, x2 = 0.746	0.069 ± 0.01
293.11 K, 506.5 kPa, x2 = 0.5	0.066 ± 0.01
293.13 K, 428.7 kPa, x2 = 0.75	0.114 ± 0.01
303.05 K, 313.9 kPa, x2 = 0.495	0.11 ± 0.01
303.16 K, 525.9 kPa, x2 = 0.5	0.066 ± 0.01
303.17 K, 443.8 kPa, x2 = 0.75	0.114 ± 0.01
303.18 K, 196.3 kPa, x2 = 0.254	0.136 ± 0.01
303.19 K, 381.3 kPa, x2 = 0.25	0.069 ± 0.01
303.35 K, 724.8 kPa, x2 = 0.746	0.069 ± 0.01
313.14 K, 203.2 kPa, x2 = 0.254	0.136 ± 0.01
313.17 K, 396.1 kPa, x2 = 0.25	0.069 ± 0.01
313.17 K, 545.2 kPa, x2 = 0.5	0.066 ± 0.01
313.18 K, 324.5 kPa, x2 = 0.495	0.11 ± 0.01
313.18 K, 458.8 kPa, x2 = 0.75	0.114 ± 0.01
313.2 K, 749.1 kPa, x2 = 0.746	0.069 ± 0.01
323.13 K, 209.9 kPa, x2 = 0.254	0.136 ± 0.01
323.15 K, 410.2 kPa, x2 = 0.25	0.069 ± 0.01
323.16 K, 473.2 kPa, x2 = 0.75	0.114 ± 0.01
323.17 K, 335.3 kPa, x2 = 0.495	0.11 ± 0.01
323.17 K, 564 kPa, x2 = 0.5	0.066 ± 0.01
323.17 K, 773.9 kPa, x2 = 0.746	0.069 ± 0.01
333.16 K, 423.9 kPa, x2 = 0.25	0.069 ± 0.01
333.17 K, 582.8 kPa, x2 = 0.5	0.066 ± 0.01
333.17 K, 799.4 kPa, x2 = 0.746	0.069 ± 0.01
333.18 K, 346.1 kPa, x2 = 0.495	0.11 ± 0.01
333.19 K, 488.7 kPa, x2 = 0.75	0.114 ± 0.01
333.34 K, 216.7 kPa, x2 = 0.254	0.136 ± 0.01
343.11 K, 601.4 kPa, x2 = 0.5	0.066 ± 0.01
343.12 K, 223.3 kPa, x2 = 0.254	0.136 ± 0.01
343.12 K, 356.8 kPa, x2 = 0.495	0.11 ± 0.01
343.13 K, 823.9 kPa, x2 = 0.746	0.069 ± 0.01
343.14 K, 438.2 kPa, x2 = 0.25	0.069 ± 0.01
343.14 K, 503.4 kPa, x2 = 0.75	0.114 ± 0.01
353.05 K, 451.9 kPa, x2 = 0.25	0.069 ± 0.01
353.08 K, 229.5 kPa, x2 = 0.254	0.136 ± 0.01
353.1 K, 619.5 kPa, x2 = 0.5	0.066 ± 0.01
353.11 K, 367.5 kPa, x2 = 0.495	0.111 ± 0.01
353.13 K, 518.1 kPa, x2 = 0.75	0.114 ± 0.01
353.13 K, 848.5 kPa, x2 = 0.746	0.069 ± 0.01
363.06 K, 236.3 kPa, x2 = 0.254	0.136 ± 0.01
363.1 K, 378.2 kPa, x2 = 0.495	0.111 ± 0.01
363.1 K, 465.8 kPa, x2 = 0.25	0.069 ± 0.01
363.1 K, 872.9 kPa, x2 = 0.746	0.069 ± 0.01
363.12 K, 638.7 kPa, x2 = 0.5	0.066 ± 0.01
363.25 K, 533.3 kPa, x2 = 0.75	0.114 ± 0.01
373 K, 242.6 kPa, x2 = 0.254	0.136 ± 0.01
373.07 K, 547.3 kPa, x2 = 0.75	0.114 ± 0.01
373.09 K, 389.2 kPa, x2 = 0.495	0.111 ± 0.01
373.09 K, 657 kPa, x2 = 0.5	0.066 ± 0.01
373.1 K, 479.5 kPa, x2 = 0.25	0.069 ± 0.01
373.16 K, 897.7 kPa, x2 = 0.746	0.069 ± 0.01
383.05 K, 675.5 kPa, x2 = 0.5	0.066 ± 0.01
383.06 K, 494.4 kPa, x2 = 0.25	0.069 ± 0.01
383.08 K, 922.8 kPa, x2 = 0.746	0.069 ± 0.01
383.09 K, 399.9 kPa, x2 = 0.495	0.111 ± 0.01
383.09 K, 562.6 kPa, x2 = 0.75	0.114 ± 0.01
383.26 K, 249.6 kPa, x2 = 0.254	0.136 ± 0.01
393.05 K, 508.1 kPa, x2 = 0.25	0.069 ± 0.01
393.06 K, 577.5 kPa, x2 = 0.75	0.114 ± 0.01
393.06 K, 694 kPa, x2 = 0.5	0.066 ± 0.01
393.08 K, 410.6 kPa, x2 = 0.495	0.111 ± 0.01
393.13 K, 947.3 kPa, x2 = 0.746	0.069 ± 0.01
393.14 K, 256.3 kPa, x2 = 0.254	0.136 ± 0.01
402.99 K, 421.1 kPa, x2 = 0.495	0.111 ± 0.01
403.04 K, 521.2 kPa, x2 = 0.25	0.069 ± 0.01
403.04 K, 592.5 kPa, x2 = 0.75	0.114 ± 0.01
403.05 K, 712.5 kPa, x2 = 0.5	0.066 ± 0.01
403.1 K, 971.7 kPa, x2 = 0.746	0.069 ± 0.01
403.14 K, 262.9 kPa, x2 = 0.254	0.137 ± 0.01
413 K, 432.1 kPa, x2 = 0.495	0.111 ± 0.01
413.01 K, 535.2 kPa, x2 = 0.25	0.069 ± 0.01
413.04 K, 995.8 kPa, x2 = 0.746	0.069 ± 0.01
413.06 K, 607.4 kPa, x2 = 0.75	0.114 ± 0.01
413.1 K, 731 kPa, x2 = 0.5	0.066 ± 0.01
413.13 K, 269.4 kPa, x2 = 0.254	0.137 ± 0.01
